These results are taken from patent US9266817B2, “Catecholamine derivatives for obesity and neurological disorders” (EMORY UNIVERSITY, priority 2009, dated 2016).

For assay [1], the target named is T1, TrkB intracellular domain (ICD) (Homo sapiens, UniProt Q16620).
T1 construct: purified ECD (extracellular domain) and ICD (intracellular domain) proteins from Trk receptors
Description: In vitro binding assay with purified TrkB ICD and 3H-ligands (Scatchard plot). The note with it: for pKd: purified protein, 25° C., 30 minutes, read-out: TrkB binding constants (Scatchard plot). On the procedure:
(§1) Purified TrkA and TrkB ECD or ICD proteins were incubated with different ^3H-catecholamines at 25° C. for 30 minutes in 1 ml of binding buffer (50 mM Tris-HCl, pH 7.4, 100 mM NaCl, 5 nM ^3H-catecholamines (32000 cpm)). After the incubation, the reaction mixture was loaded on a Whatman glass-fiber filter (GF-B) (Whatman Inc.; Piscataway, N.J.). The mixture was washed with 3×5 ml washing buffer (50 mM Tris-HCl, pH 7.4). The dried filter paper was put into a small vial and subjected to liquid scintillation counter analysis. The value of the dissociate constant and the number of sites were obtained from Scatchard plots by using the equation r/[L]free =n/Kd−r/Kd, where r is the ratio of the concentration of bound ligand to the total protein concentration and n is the number of binding sites.
(§2) To determine whether catecholamines bind TrkB directly, an in vitro binding assay was conducted with purified ECD (extracellular domain) and ICD (intracellular domain) proteins from Trk receptors and ^3H-catecholamines. […] To determine whether the binding by catecholamines to TrkB receptor caused dimerization, GST-TrkB was co-transfected into HEK293 cells with HA-TrkB, followed by BDNF or monoamines treatment for 15 minutes.

Another assay addresses TrkA (Homo sapiens, UniProt P04629). The note with it: transfected HEK293 cells. On the procedure: as §2
In a further assay the target is TrkC (Homo sapiens, UniProt Q16288). The note with it: transfected HEK293 cells. The protocol:
as §2

Assay [2] has as its target T2, TrkB (Mus musculus, UniProt P15209).
T2 construct: endogenous in cells; host or cells: primary cortical neurons from BDNF-null, TrkB +/- cross, TrkC knockout and NET -/- mice
The assay is classed as cell-based, mice. The settings on record: compared to wild-type control neurons. The protocol: (§3) It was then determined whether catecholamines could activate TrkB in neurons cultured from mice carrying a null mutation of NET.

Assay [3] concerns the target T3, TrkB (Homo sapiens, UniProt Q16620). Description: Tyrosine phosphorylation of TrkB in transfected HEK293 cells. The assay is classed as cell-based. The arrangement: expressed in transfected cells; host or cells: HEK293. On the procedure: as §2
The target of assay [4] is T3, TrkB. The assay is described as follows: Activation of transfected TrkB in HEK293 cells with or without DAT or NET. The assay is classed as cell-based. The arrangement: expressed in transfected cells; host or cells: HEK293. The settings on record: NET transfected HEK293 cells.
For assay [5], the target named is T4, TrkB extracellular domain (ECD) (Homo sapiens, UniProt Q16620).
T4 construct: purified ECD (extracellular domain) and ICD (intracellular domain) proteins from Trk receptors
Description: In vitro binding assay with purified TrkB ECD and 3H-ligands. The settings on record: purified ECD, 3H-ligand. The protocol: as §1, §2

Assay [6] deals with T5, TrkB (Rattus norvegicus, UniProt Q63604).
T5 construct: endogenous in cells; host or cells: primary rat cortical and hippocampal neurons
The assay is described as follows: TrkB activation in cortical neurons after pretreatment with antibodies, receptor antagonists, transporter inhibitors or EDTA (anti-p-TrkB-Y-816 immunoblot). The assay is classed as cell-based.
Text: (§4) Both antidepressants and exercise increase hippocampal BDNF mRNA expression through enhanced 5-HT and/or NE neurotransmission (Siuciak et al., Pharmacol. Biochem. Behav., 56:131-137, 1997; Dias et al., Neuropharmacology, 45:553-563, 2003; Ivy et al., Pharmacol. Biochem. Behav., 75:81-88, 2003; Garza et al., Pharmacol. Biochem. Behav., 77:209-220, 2004). If catecholamines activated TrkB signaling indirectly by promoting BDNF generation, then scavenging BDNF with its specific antibody would be expected to diminish catecholamines-mediated activation of TrkB. Cultured cortical neurons were pretreated with BDNF-IgG for 30 minutes followed by exposure to BDNF (10 ng/ml) or catecholamines (100 nM) for 15 minutes. […] It was then determined whether catecholamines could activate TrkB in neurons cultured from mice carrying a null mutation of BDNF.
To further investigate the specificity of catecholamines in inducing TrkB activation, cortical neurons were pretreated with control IgG or norepinephrine IgG, a rabbit polyclonal antibody for norepinephrine, followed by catecholamines.
as §3
(§5) The cell lysates were analyzed by immunoblotting with anti-p-TrkB-Y-816.
as §5
A group of primary cortical neurons were pretreated with 1 mM EDTA, and another group of primary cortical neurons were not pretreated. Both groups of primary cortical neurons were then treated with either Zn (100 μM) or a catecholamine (100 nM) for 15 minutes. The neuronal cell lysates were analyzed by immunoblotting with anti-p-TrkB-Y-816 antibody.
(In western blotting, separated proteins are transferred to a membrane and probed.)

The target in assay [7] is T2, TrkB. Description: TrkB activation in cortical neurons cultured from BDNF-null mice. The assay is classed as cell-based. The note with it: 15 min.
Text: as §4

Assay [8] deals with T6, TrkB (Mus musculus, UniProt P15209, F616A).
T6 construct: from tissue; host or cells: mouse brain
The assay is classed as in vivo. The settings on record: 1NMPP1 50 μM; for TrkB tyrosine phosphorylation/activation in mice: L-DOPA 50 mg/kg, DOPS 100 mg/kg. The protocol: The DOPS concentration was 20 mg/ml, the vitamin C concentration was 2 mg/ml, and the benserazide concentration was 5 mg/ml. The vitamin C prevents oxidation of the DOPS, and the benserazide is a peripheral inhibitor of AADC and restricts the production of NE from DOPS to the brain. The compounds were added to a tube, and 20 μl of 10 M HCl was added to each ml of DOPS solution. The appropriate amount of water was added to the tube, and then HCl was added to achieve the desired volume. For example, to make 1 mL of a DOPS solution, 20 mg DOPS, 2 mg vitamin C, and 5 mg benserazide were added to a tube, followed by 980 μL of water and 20 μL of 10 M HCl. The solution was vortexed until all DOPS was dissolved. The DOPS solution was injected subcutaneously in a volume of 50 μl/g of mouse. The appropriate amount of DOPS solution was pipetted into a clean tube, followed by the amount of 10 M NaOH required to exactly neutralize the HCl. The solution was then shaken. The amount of 10 M NaOH is the weight of the mouse in microliters. For example, for a 20 g mouse, pipet 1 ml of the DOPS solution is pipetted into a tube and 20 μL of 10 M NaOH is added. For a 30 g mouse, 1.5 mL of the DOPS solution is pipetted into a tube and 30 μl of 10 M NaOH is added. Two to four month-old TrkBF616A mice were pretreated with 1NMPP1 in drinking water (50 μM) 1 day before L-DOPA (50 mg/kg) or DOPS (100 mg/kg) intraperitoneal injection. At times of 2 hours and 5 hours after drug administration, the L-DOPA or DOPS-treated mice were sacrificed, respectively. The brain lysates were prepared and analyzed by immunoblotting against anti-phospho-TrkB Y816 and TrkA Y794 antibodies.
(§6) TrkB F616A mice were pretreated with 1NMPP1 (50 μM) before L-DOPA or DOPS administration.

Assay [9] addresses T7, TrkB F616A (Mus musculus, UniProt P15209).
T7 construct: endogenous in cells; host or cells: primary cortical neurons from TrkB F616A knock-in mice
The assay is described as follows: TrkB phosphorylation in TrkB F616A or TrkA F592A cortical neurons pretreated with K252a or 1NMPP1. The assay is classed as cell-based, mice. The note with it: TrkA F592A neurons. On the procedure:
as §6
(§7) On day 7, the primary cortical neurons were pretreated with 100 nM K252a or 1NMPP1 for 30 min, followed by 500 nM ADPP and DDAP. Cell lysates were analyzed by Western blotting.

Assay [10] concerns the target T8, TrkB F616A (Mus musculus, UniProt P15209, F616A).
T8 construct: endogenous in cells; host or cells: primary cortical neurons from TrkB F616A knock-in mice
The assay is described as above. The assay is classed as cell-based, mice. The settings on record: TrkB F616A knock-in cortical neurons. On the procedure:
as §6, §7

Assay [11] concerns TrkB F616A cortical neurons. Description: Glutamate-provoked apoptosis of TrkB F616A cortical neurons (TUNEL assay). The assay is classed as cell-based, mice. The arrangement: Effect of inhibitor on protective action of norepinephrine: dose or concentration left out as unconfirmed. On the procedure: Norepinephrine has neuroprotective activity against oxidative stress-induced neuronal apoptosis. To investigate whether this protective action by norepinephrine is mediated through TrkB, apoptosis of TrkB F616A cortical neurons was monitored. Primary cortical neurons were pretreated with inhibitors K252a or 1NMPP1 followed by overnight treatment with 50 mM glutamate.

In the next assay the test system is TrkB F616A knockin mice. Description: Kainic acid-induced neuronal apoptosis in TrkB F616A knockin mice (immunoblotting and Caspase-3 ELISA). The assay is classed as in vivo. The note with it: 1NMPP1 16.6 ng/kg 2 days before. The protocol: To determine whether Compound I-11 (ADPP) and Compound I-8 (DDAP) protect neurons from KA-induced apoptosis, TrkB F616A knockin mice were pretreated with inhibitor 1NMPP1 (16.6 ng/kg) 2 days before the experiment. Compound I-8 (DDAP) or Compound I-11 (ADPP) (50 mg/kg) was orally injected into the mice 2 hours before kainic acid (KA) administration (20 mg/kg). Brain lysates were analyzed by immunoblotting and Caspase-3 ELISA. […] The extent of the protective effect correlates with TrkB activation status by these compounds. Active Caspase-3 ELISA correlated with the immunoblotting results (FIG. 28B, right panel).

The test system of another assay is mice. The assay is described as follows: Forced swim test. The assay is classed as in vivo. The note with it: TrkB F616A knockin mice. The protocol:
Accumulating evidence supports that BDNF plays an essential role in mediating antidepressants' therapeutic effects. Infusion of exogenous BDNF into hippocampus or brain stem has antidepressant-like behavioral effect. A forced swim test is broadly used for screening of potential antidepressant drugs and is widely used to measure antidepressant activity. To explore whether Compound I-11 (ADPP) and Compound I-8 (DDAP) have antidepressant effects like BDNF, forced swim tests were conducted. Adult male mice (2-3 months old, n=8) were randomly submitted, without a pre-swim, to a forced swim test of 6 minutes with immobility recorded in the last 4 minutes. Mice were injected intraperitoneally with saline, Compound I-11 (20 mg/kg), or Compound I-8 (20 mg/kg). The mice were allowed to adapt to the test room for 2 days, and the mice were placed in a clear glass cylinder with a diameter of 16 cm, half-filled with clear water at 24° C.
To assess whether the behavior responses caused by catecholamine derivatives is mediated by TrkB receptor, TrkB F616A knockin mice were utilized. The mice were subjected to saline or 1NMPP1 inhibitor pretreatment.

Molecules are shown by their SMILES. pKd: −log10 of the molar value.

T1 sequence (Q16620 455-822 limits assumed): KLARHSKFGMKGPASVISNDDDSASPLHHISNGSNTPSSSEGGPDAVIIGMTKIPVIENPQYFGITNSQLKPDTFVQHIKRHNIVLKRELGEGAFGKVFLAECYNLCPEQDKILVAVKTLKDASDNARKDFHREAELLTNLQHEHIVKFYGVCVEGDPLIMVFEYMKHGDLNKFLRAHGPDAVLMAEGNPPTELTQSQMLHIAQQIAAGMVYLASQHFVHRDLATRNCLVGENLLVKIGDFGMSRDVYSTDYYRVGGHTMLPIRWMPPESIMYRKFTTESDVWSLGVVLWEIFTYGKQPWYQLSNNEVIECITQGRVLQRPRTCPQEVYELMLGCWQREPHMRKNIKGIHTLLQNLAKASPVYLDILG
T5 sequence (Q63604 32-821): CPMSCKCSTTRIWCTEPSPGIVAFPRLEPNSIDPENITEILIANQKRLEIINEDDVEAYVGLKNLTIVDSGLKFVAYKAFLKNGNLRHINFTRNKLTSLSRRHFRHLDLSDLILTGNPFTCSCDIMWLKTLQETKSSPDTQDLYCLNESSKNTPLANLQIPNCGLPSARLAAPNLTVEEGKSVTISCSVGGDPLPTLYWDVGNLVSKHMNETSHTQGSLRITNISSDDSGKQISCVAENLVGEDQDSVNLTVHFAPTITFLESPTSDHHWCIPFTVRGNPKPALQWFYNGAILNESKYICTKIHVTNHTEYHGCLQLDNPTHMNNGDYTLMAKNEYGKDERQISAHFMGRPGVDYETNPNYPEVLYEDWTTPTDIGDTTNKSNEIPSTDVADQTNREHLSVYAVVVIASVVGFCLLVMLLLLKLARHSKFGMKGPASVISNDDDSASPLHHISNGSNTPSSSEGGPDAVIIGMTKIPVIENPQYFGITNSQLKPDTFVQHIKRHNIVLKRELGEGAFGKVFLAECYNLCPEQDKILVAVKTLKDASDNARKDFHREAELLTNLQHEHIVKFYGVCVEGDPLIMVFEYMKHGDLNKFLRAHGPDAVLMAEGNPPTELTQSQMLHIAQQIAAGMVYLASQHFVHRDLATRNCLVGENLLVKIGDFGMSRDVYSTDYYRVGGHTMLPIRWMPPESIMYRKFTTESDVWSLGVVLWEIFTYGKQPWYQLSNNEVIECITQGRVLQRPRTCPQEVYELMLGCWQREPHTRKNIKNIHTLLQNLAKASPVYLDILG
T3 sequence (Q16620 32-822, species assumed): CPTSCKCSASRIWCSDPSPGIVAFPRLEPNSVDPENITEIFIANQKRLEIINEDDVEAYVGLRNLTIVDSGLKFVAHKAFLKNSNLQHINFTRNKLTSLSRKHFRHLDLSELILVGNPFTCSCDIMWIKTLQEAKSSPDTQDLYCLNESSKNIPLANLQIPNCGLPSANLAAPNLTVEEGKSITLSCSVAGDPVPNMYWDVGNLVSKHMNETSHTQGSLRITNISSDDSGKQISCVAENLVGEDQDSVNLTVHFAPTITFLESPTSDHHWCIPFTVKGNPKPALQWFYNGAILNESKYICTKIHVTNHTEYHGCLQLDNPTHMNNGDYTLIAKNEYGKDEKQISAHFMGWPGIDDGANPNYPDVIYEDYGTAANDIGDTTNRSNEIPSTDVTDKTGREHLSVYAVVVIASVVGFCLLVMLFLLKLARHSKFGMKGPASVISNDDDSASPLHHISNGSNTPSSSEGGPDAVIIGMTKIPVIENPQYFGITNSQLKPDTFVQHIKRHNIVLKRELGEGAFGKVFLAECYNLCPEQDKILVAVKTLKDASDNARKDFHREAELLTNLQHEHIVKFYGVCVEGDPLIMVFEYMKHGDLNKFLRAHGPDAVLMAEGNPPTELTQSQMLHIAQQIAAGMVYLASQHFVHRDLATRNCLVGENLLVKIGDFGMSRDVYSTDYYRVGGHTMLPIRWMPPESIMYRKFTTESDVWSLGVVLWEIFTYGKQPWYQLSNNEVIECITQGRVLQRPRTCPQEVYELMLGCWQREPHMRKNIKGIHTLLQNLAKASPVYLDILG
T6 sequence (P15209 32-821 F616A): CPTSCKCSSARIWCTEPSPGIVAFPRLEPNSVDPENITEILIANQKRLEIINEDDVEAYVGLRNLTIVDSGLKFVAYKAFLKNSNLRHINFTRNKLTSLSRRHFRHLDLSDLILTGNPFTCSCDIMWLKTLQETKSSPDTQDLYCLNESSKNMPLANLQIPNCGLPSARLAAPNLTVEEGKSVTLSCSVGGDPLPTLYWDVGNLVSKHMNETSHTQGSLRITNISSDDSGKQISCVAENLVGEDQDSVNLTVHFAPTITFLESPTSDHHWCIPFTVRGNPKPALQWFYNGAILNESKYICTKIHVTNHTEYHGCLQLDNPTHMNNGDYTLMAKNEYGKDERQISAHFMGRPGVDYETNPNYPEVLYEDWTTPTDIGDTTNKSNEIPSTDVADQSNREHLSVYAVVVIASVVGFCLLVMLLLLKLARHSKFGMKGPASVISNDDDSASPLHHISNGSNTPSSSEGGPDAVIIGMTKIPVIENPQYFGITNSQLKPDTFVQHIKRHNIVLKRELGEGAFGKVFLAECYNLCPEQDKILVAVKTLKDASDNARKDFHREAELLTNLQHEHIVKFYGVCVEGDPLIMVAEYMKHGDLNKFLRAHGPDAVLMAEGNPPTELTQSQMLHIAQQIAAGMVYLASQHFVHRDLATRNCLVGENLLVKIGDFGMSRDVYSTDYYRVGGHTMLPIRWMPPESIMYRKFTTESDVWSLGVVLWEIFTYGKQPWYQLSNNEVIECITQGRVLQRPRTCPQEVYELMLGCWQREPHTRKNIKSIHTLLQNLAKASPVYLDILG
T2 sequence (P15209 32-821): as the sequence (P15209 32-821 F616A) above, with A585F counted along it
Sequence of TrkC (Q16288 32-839, species assumed): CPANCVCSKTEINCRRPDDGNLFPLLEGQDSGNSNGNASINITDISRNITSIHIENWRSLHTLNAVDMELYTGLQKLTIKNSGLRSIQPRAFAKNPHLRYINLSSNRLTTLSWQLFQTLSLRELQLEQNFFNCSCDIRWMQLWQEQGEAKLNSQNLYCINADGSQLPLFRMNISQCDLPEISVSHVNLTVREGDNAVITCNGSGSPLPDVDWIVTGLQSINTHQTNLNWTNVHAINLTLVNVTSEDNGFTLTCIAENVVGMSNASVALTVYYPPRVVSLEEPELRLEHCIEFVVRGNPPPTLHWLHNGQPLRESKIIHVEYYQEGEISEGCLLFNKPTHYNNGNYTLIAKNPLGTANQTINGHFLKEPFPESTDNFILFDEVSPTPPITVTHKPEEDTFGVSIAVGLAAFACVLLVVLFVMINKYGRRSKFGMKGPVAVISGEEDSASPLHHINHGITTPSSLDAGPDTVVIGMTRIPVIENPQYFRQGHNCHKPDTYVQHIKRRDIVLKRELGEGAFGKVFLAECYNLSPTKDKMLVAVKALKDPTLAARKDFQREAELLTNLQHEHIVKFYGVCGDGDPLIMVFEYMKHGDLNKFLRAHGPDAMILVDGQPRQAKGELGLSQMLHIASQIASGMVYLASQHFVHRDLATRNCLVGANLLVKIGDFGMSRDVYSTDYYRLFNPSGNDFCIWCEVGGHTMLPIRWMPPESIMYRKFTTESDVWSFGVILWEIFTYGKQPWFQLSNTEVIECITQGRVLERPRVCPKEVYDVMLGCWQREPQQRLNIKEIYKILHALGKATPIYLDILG
T4 sequence (Q16620 32-430 limits assumed): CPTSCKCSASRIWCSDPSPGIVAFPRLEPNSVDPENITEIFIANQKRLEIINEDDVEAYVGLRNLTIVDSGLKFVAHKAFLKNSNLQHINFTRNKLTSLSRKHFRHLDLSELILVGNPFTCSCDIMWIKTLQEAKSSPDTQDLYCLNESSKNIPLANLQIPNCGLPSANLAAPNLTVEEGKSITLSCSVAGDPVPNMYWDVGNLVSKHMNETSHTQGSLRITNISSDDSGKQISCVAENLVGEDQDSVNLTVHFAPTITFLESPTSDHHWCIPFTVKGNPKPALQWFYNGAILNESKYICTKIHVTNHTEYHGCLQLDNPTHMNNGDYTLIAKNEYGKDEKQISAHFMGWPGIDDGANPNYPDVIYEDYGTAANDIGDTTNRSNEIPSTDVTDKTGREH
Sequence of TrkA (P04629 33-796, species assumed): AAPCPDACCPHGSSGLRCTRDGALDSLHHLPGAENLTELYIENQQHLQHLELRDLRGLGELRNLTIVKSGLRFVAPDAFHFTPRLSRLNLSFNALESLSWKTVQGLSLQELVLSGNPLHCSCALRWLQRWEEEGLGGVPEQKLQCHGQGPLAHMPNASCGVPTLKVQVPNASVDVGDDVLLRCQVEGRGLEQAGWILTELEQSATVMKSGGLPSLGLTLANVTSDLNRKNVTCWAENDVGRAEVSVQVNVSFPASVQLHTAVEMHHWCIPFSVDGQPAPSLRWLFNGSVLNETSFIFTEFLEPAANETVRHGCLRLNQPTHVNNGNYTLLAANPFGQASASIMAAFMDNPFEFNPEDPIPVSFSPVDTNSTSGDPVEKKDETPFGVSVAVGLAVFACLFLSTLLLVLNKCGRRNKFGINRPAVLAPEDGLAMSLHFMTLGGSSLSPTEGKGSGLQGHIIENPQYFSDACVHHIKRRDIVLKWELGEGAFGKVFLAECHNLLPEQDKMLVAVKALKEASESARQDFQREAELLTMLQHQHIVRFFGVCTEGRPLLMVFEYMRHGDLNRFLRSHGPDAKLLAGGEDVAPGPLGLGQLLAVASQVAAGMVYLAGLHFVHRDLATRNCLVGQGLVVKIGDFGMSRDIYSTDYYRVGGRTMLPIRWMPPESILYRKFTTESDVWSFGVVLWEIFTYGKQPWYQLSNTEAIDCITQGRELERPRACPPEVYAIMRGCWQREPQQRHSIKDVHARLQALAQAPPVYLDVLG
T8 sequence (P15209 32-821 F616A): as the sequence (P15209 32-821 F616A) above
T7 sequence (P15209 32-821 F616A): as above

Consider `CNC[C@H](O)c1ccc(O)c(O)c1` [epinephrine], for which, in assay [1] (purified ICD, 3H-ligand), the “Binding to ICD of TrkB receptor” value is “strongest binding activity”. For the same compound, the pKd in assay [1] was 5.96. Further, the “Tyrosine phosphorylation of TrkA” value on TrkA is reported as “but not in TrkA”. Besides, on TrkC, the “Tyrosine phosphorylation of TrkC” value is listed as “but not in TrkA or TrkC”. On TrkB [2], the “TrkB activation in NET -/- neurons” value is recorded as “completely blocked”. At TrkB [3], the “Tyrosine phosphorylation of TrkB” value was “elicited tyrosine phosphorylation”. The “Increase of stimulatory activity by overexpression of NET compared to control cells” value on TrkB [4] is on record as “approximately 100 fold”.
Turning to `O=c1cc(-c2ccccc2)oc2c(O)c(O)ccc12` [7,8-dihydroxyflavone], the “Binding to ECD of TrkB receptor” value in assay [5] is “selectively bound”. The “Effect of BDNF-IgG pretreatment on phosphorylation of TrkB induced by the substance” value on TrkB [6] (BDNF-IgG 30 minutes, then BDNF 10 ng/ml or catecholamines 100 nM, 15 minutes) is “had no effect”. Also, the “Activation of TrkB in BDNF-null cortical neurons” value on TrkB [7] was “evident activation of TrkB”. Besides, the “TrkB tyrosine phosphorylation/activation in mice” value at TrkB [8] was “provoked evident TrkB activation”.
Take `CC(C)(C)n1nc(Cc2cccc3ccccc23)c2c(N)ncnc21` [Compound 1NMPP1]: on TrkB F616A [9], the “Effect of inhibitor on catecholamine-induced TrkB activation” value is on record as “but not by 1NMPP1”. For the same compound, the “Effect of inhibitor on catecholamine-provoked TrkB phosphorylation” value on TrkB F616A [10] is “selectively reduced”. At TrkB [8], the “TrkB tyrosine phosphorylation/activation in mice” value is on record as “had no effect”. Besides, at TrkB [8] (TrkB F616A mice), the “Effect of 1NMPP1 pretreatment on TrkB activation by 7,8-dihydroxyflavone, L-DOPA and DOPS” value is reported as “markedly diminished TrkB activation”. Also, the “Effect of inhibitor on protective action of norepinephrine” value in assay [11] (glutamate overnight) was “abolished”. The “Effect of 1NMPP1 pretreatment on protective effect of Compounds I-8 and I-11” value with TrkB F616A knockin mice is reported as “blocked the protective effect”. In addition, the “Immobility times, 1NMPP1 versus saline treated control groups” value in the assay with mice is recorded as “No significant difference”.
Consider `NC[C@H](O)c1ccc(O)c(O)c1` [norepinephrine], for which the pKd in [1] was 4.01. The “Effect of norepinephrine IgG on the agonistic effect of the substance on TrkB activation” value at TrkB [6] (IgG 15 min, then 300 nM catecholamines 15 min) is “selectively inhibited”. On TrkB [6] (compared to control IgG), the “Effect of norepinephrine IgG on the agonistic effect of the substance” value is “selectively neutralized”. In addition, on TrkB [2], the “TrkB activation in NET -/- neurons” value is listed as “completely blocked”. Moreover, the “Glutamate-provoked neuronal cell death” value in assay [11] (50 mM glutamate overnight) is “robustly suppressed”. Moreover, the “Increase of stimulatory activity by overexpression of NET compared to control cells” value on TrkB [4] is on record as “approximately 100 fold”.
